Results from patent publication US12649733B2, “3,6-diamino-pyridazin-3-yl derivatives, pharmaceutical compositions containing them and their uses as pro-apoptotic agents” (LES LABORATOIRES SERVIER, priority 2019, dated 2026).

Key:
[1] = system: H146 cells; assay: H146 cell viability, MTT assay; assay type: cell-based; conditions: Homo sapiens, NCI-H146, 48 h, 48 h exposure
Outline: (§1)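 Viability read by MTT reduction (OD 540 nm after overnight SDS/HCl lysis) after 48 h compound treatment of cells in RPMI 1640/10% FBS. Triplicates at nine concentrations, 3.16-fold apart; four-parameter curve fitting yields IC50.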

[2] = molecular target: T1, Bcl-xL protein (Homo sapiens, UniProt Q07817, N197C); assay: Fluorescence quenching assay (PUMA peptide displacement); assay type: binding; conditions: 1 nM protein, 400 nM peptide, 2 hours at 23° C.; KI determined from IC50
T1 construct: (2-197)[N197C]; His-His (two His8 stretches joined by a Gly/Ala/Ser/Thr linker)
T1 sequence (Q07817 2-197 N197C): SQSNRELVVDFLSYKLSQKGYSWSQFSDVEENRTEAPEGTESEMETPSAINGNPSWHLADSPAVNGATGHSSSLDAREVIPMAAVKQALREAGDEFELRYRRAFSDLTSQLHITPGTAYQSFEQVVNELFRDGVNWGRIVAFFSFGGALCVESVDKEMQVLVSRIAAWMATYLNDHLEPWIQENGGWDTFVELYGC
Outline: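 Compounds were tested as an 11-point series in pH 7.4 HEPES/NaCl/Tween buffer with 5% DMSO, 2 h at 23 °C. Cy5-tagged Bcl-xL(2-197, N197C) at 1 nM and quencher-tagged PUMA peptide at 400 nM were used. Competitive binders restore fluorescence (620/680 nm), and IC50 values were converted to KI.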

[3] = molecular target: T2, BCLXL (Homo sapiens, UniProt Q07817, V10N/V9A); assay: AlphaLISA assay (BIM peptide displacement); assay type: binding; conditions: 20 pM protein, 1 nM peptide
T2 sequence (Q07817 with tags, fused parts or gaps V9A/V10N): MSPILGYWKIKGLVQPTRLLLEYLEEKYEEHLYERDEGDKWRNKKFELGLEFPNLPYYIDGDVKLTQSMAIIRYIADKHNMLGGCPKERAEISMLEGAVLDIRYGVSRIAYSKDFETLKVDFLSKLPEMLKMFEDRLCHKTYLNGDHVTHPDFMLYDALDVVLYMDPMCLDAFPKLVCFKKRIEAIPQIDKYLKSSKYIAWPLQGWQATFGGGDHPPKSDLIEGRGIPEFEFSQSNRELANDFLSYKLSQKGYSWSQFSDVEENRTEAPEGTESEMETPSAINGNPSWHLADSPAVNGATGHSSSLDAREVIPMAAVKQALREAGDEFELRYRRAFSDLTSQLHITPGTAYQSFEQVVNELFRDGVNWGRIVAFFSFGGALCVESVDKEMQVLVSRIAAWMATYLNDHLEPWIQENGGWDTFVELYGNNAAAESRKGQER
Outline: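 Competitive displacement of fluorescein-labelled BIM peptide (1 nM) from biotinylated GST-BCL-XL(2-209) (20 pM) in 10 mM HEPES, 150 mM NaCl, 0.05% Tween 20, pH 7.4, 4% DMSO; 11-point dilutions. Overnight at 23° C with acceptor beads, then donor beads 2 h; Alpha signal at 615 nm.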

[4] = system: MOLT-4 cells; assay: MOLT-4 cell viability, MTT assay; assay type: cell-based; conditions: Homo sapiens, MOLT-4, 48 h, 48 h exposure
Outline: as §1

[5] = molecular target: T2, BCLXL; assay: Fluorescence polarisation assay (PUMA-based probe displacement); assay type: binding; also: 20 nM protein, 10 nM fluorescent probe

Structure (SMILES)	IC50 [1] [nM]	Ki [2] [nM]	IC50 [3] [nM]	IC50 [4] [nM]	Ki [5] [nM]
CNCC#Cc1ccc(OCCCc2sc(N(CCCC(O)C[N+](C)(C)C)c3cc(C)c(Nc4nc5ccccc5s4)nn3)nc2C(=O)[O-])c(F)c1 (stereo not drawn) [Example 144, 2-[[6-(1,3-Benzothiazol-2-ylamino)-5-methyl-pyridazin-3-yl]-[4-hydroxy-5-(trimethylammonio)pentyl]amino]-5-[3-[2-fluoro-4-[3-(methylamino)prop-1-ynyl]phenoxy]propyl]thiazole-4-carboxylate]	14500	0.0039	0.014	430	< 1
Cc1cc(N(CCCCCN(C)C2CCNCC2)c2nc(C(=O)O)c(CCCOc3ccc(C#CCN(C)C)cc3F)s2)nnc1Nc1nc2ccccc2s1 [Example 165, 2-[[6-(1,3-Benzothiazol-2-ylamino)-5-methyl-pyridazin-3-yl]-[5-[methyl(4-piperidyl)amino]pentyl]amino]-5-[3-[4-[3-(dimethylamino)prop-1-ynyl]-2-fluoro-phenoxy]propyl]thiazole-4-carboxylic acid]	211	0.0059	0.019	430	< 1
C/C(=C\c1sc(N(C)c2cc(C)c(Nc3nc4ccccc4s3)nn2)nc1C(=O)O)COc1ccc(C#CCN(C)C)cc1F [Example 163, 2-({6-[(1,3-Benzothiazol-2-yl)amino]-5-methylpyridazin-3-yl}(methyl)amino)-5-[(1E)-3-{4-[3-(dimethylamino)prop-1-yn-1-yl]-2-fluorophenoxy}-2-methylprop-1-en-1-yl]-1,3-thiazole-4-carboxylic acid]	1040	0.02	0.18	96.2	< 1
Cc1cc(N(CCCC(O)CN(C)CCN(C)C)c2nc(C(=O)O)c(CCCOc3ccc(C#CCN(C)C)cc3F)s2)nnc1Nc1nc2ccccc2s1 (stereo not drawn) [Example 124, 2-[[6-(1,3-Benzothiazol-2-ylamino)-5-methyl-pyridazin-3-yl]-[5-[2-(dimethylamino)ethyl-methyl-amino]-4-hydroxy-pentyl]amino]-5-[3-[4-[3-(dimethylamino)prop-1-ynyl]-2-fluoro-phenoxy]propyl]thiazole-4-carboxylic acid]	50.6	0.0017	0.0076	19.2	< 1
CCN(CC)CCNCC(O)CCCN(c1cc(C)c(Nc2nc3ccccc3s2)nn1)c1nc(C(=O)O)c(CCCOc2ccc(C#CCN(C)C)cc2F)s1 (stereo not drawn) [Example 170, 2-[[6-(1,3-Benzothiazol-2-ylamino)-5-methyl-pyridazin-3-yl]-[5-[2-(diethylamino)ethylamino]-4-hydroxy-pentyl]amino]-5-[3-[4-[3-(dimethylamino)prop-1-ynyl]-2-fluoro-phenoxy]propyl]thiazole-4-carboxylic acid]	156	0.005	0.014	154	< 1
Cc1cc(N(CCCCO)c2nc(C(=O)O)c(CCCOc3ccc(C#CCN(C)C)cc3F)s2)nnc1Nc1nc2ccccc2s1 [Example 134, 2-[[6-(1,3-Benzothiazol-2-ylamino)-5-methyl-pyridazin-3-yl]-(4-hydroxybutyl)amino]-5-[3-[4-[3-(dimethylamino)prop-1-ynyl]-2-fluoro-phenoxy]propyl]thiazole-4-carboxylic acid]	1.91	0.001	0.0053	0.783	< 1
Cc1cc(N(C)c2nc(C(=O)O)c(CCCOc3ccc(C#CCN(C)C)cc3F)s2)nnc1Nc1nc2ccccc2s1 [Example 50, 2-[[6-(1,3-Benzothiazol-2-ylamino)-5-methyl-pyridazin-3-yl]-methyl-amino]-5-[3-[4-[3-(dimethylamino)prop-1-ynyl]-2-fluoro-phenoxy]propyl]thiazole-4-carboxylic acid]	2.84	0.0044	0.0074	0.462	1.2
CNCCN(C)CC(O)CCCN(c1cc(C)c(Nc2nc3ccccc3s2)nn1)c1nc(C(=O)O)c(CCCOc2ccc(C#CCN(C)C)cc2F)s1 (stereo not drawn) [Example 169, 2-[[6-(1,3-Benzothiazol-2-ylamino)-5-methyl-pyridazin-3-yl]-[4-hydroxy-5-[methyl-[2-(methylamino)ethyl]amino]pentyl]amino]-5-[3-[4-[3-(dimethylamino)prop-1-ynyl]-2-fluoro-phenoxy]propyl]thiazole-4-carboxylic acid]	73.1	0.0044	0.0099	106	< 1
CNCC#Cc1ccc(OCCCc2sc(N(CCC(O)COC)c3cc(C)c(Nc4nc5ccccc5s4)nn3)nc2C(=O)O)c(F)c1 (stereo not drawn) [Example 109, 2-[[6-(1,3-Benzothiazol-2-ylamino)-5-methyl-pyridazin-3-yl]-(3-hydroxy-4-methoxy-butyl)amino]-5-[3-[2-fluoro-4-[3-(methylamino)prop-1-ynyl]phenoxy]propyl]thiazole-4-carboxylic acid]	6.38	0.0011	0.011	19.8	< 1
Cc1cc(N(C)c2nc(C(=O)O)c(CC(O)COc3ccc(C#CCN(C)C)cc3F)s2)nnc1Nc1nc2ccccc2s1 (stereo not drawn) [Example 164, 2-({6-[(1,3-benzothiazol-2-yl)amino]-5-methylpyridazin-3-yl}(methyl)amino)-5-(3-{4-[3-(dimethylamino)prop-1-yn-1-yl]-2-fluorophenoxy}-2-hydroxypropyl)-1,3-thiazole-4-carboxylic acid]	34.6	0.0019	0.0071	12.9	< 1
CNCC#Cc1ccc(OCCCc2sc(N(CCCC(O)C[N+](C)(C)CCCS(=O)(=O)[O-])c3cc(C)c(Nc4nc5ccccc5s4)nn3)nc2C(=O)O)c(F)c1 (stereo not drawn) [Example 146, 3-[[5-[[6-(1,3-Benzothiazol-2-ylamino)-5-methyl-pyridazin-3-yl]-[4-carboxy-5-[3-[2-fluoro-4-[3-(methylamino)prop-1-ynyl]phenoxy]propyl]thiazol-2-yl]amino]-2-hydroxy-pentyl]-dimethyl-ammonio]propane-1-sulfonate]	971	0.0012	0.022	668	< 1
CN(C)CC#Cc1ccc(OCCCc2sc(N(C)c3cc(C4CC4)c(Nc4nc5ccccc5s4)nn3)nc2C(=O)O)c(F)c1 [Example 62, 2-({6-[(1,3-Benzothiazol-2-yl)amino]-5-cyclopropylpyridazin-3-yl}(methyl)amino)-5-(3-{4-[3-(dimethylamino)prop-1-yn-1-yl]-2-fluorophenoxy}propyl)-1,3-thiazole-4-carboxylic acid]	4.66	0.006	0.11	0.444	< 1
Cc1cc(N(CCCCCNCCN2CCN(C)CC2)c2nc(C(=O)O)c(CCCOc3ccc(C#CCN(C)C)cc3F)s2)nnc1Nc1nc2ccccc2s1 [Example 167, 2-[[6-(1,3-Benzothiazol-2-ylamino)-5-methyl-pyridazin-3-yl]-[5-[2-(4-methylpiperazin-1-yl)ethylamino]pentyl]amino]-5-[3-[4-[3-(dimethylamino)prop-1-ynyl]-2-fluoro-phenoxy]propyl]thiazole-4-carboxylic acid]	432	0.0029	0.013	400	< 1
Cc1cc(N(CCCCCNCCN2CCOCC2)c2nc(C(=O)O)c(CCCOc3ccc(C#CCN(C)C)cc3F)s2)nnc1Nc1nc2ccccc2s1 [Example 166, 2-[[6-(1,3-Benzothiazol-2-ylamino)-5-methyl-pyridazin-3-yl]-[5-(2-morpholinoethylamino)pentyl]amino]-5-[3-[4-[3-(dimethylamino)prop-1-ynyl]-2-fluoro-phenoxy]propyl]thiazole-4-carboxylic acid]	142	0.0026	0.0092	172	< 1
CNCC(O)CCCN(c1cc(C)c(Nc2nc3ccccc3s2)nn1)c1nc(C(=O)O)c(CCCOc2ccc(C#CCN(C)C)cc2F)s1 (stereo not drawn) [Example 150, 2-[[6-(1,3-Benzothiazol-2-ylamino)-5-methyl-pyridazin-3-yl]-[4-hydroxy-5-(methylamino)pentyl]amino]-5-[3-[4-[3-(dimethylamino)prop-1-ynyl]-2-fluoro-phenoxy]propyl]thiazole-4-carboxylic acid]	16.8	0.0017	0.013	136	< 1
